Source: the supplement of paper PMC11451515

Tested on: P12-Ichikawa
Test: cell viability relative to DMSO control; higher = less cytotoxic
Conditions: 48 h
Summary of the method: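 Viability was expressed as a per-plate percentage of DMSO wells, with cell-free wells as background. Leukemia cells (NOMO1 or SEM at 500 cells/well, P12-Ichikawa at 1000 cells/well) were adapted for at least four passages in each medium and seeded in 1536-well plates (5 μl). Library compounds in DMSO were pin-dosed over an 11-point threefold series from 47 μM to 0.79 nM, and CellTiter-Glo One luminescence was read after 48 h at 37°C.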

[1] = HPLM + 10% dialyzed FBS, 0.000781 µM
[2] = HPLM + 10% dialyzed FBS, 0.00234 µM
[3] = HPLM + 10% dialyzed FBS, 0.00702 µM
[4] = HPLM + 10% dialyzed FBS, 0.0211 µM
[5] = HPLM + 10% dialyzed FBS, 0.0632 µM
[6] = HPLM + 10% dialyzed FBS, 0.19 µM
[7] = HPLM + 10% dialyzed FBS, 0.569 µM
[8] = HPLM + 10% dialyzed FBS, 1.71 µM
[9] = HPLM + 10% dialyzed FBS, 5.12 µM
[10] = HPLM + 10% dialyzed FBS, 15.4 µM
[11] = HPLM + 10% dialyzed FBS, 46.1 µM
[12] = RPMI 5 mM glucose + 10% FBS, 0.000781 µM
[13] = RPMI 5 mM glucose + 10% FBS, 0.00234 µM
[14] = RPMI 5 mM glucose + 10% FBS, 0.00702 µM
[15] = RPMI 5 mM glucose + 10% FBS, 0.0211 µM
[16] = RPMI 5 mM glucose + 10% FBS, 0.0632 µM
[17] = RPMI 5 mM glucose + 10% FBS, 0.19 µM
[18] = RPMI 5 mM glucose + 10% FBS, 0.569 µM
[19] = RPMI 5 mM glucose + 10% FBS, 1.71 µM
[20] = RPMI 5 mM glucose + 10% FBS, 5.12 µM
[21] = RPMI 5 mM glucose + 10% FBS, 15.4 µM
[22] = RPMI 5 mM glucose + 10% FBS, 46.1 µM
[23] = RPMI 5 mM glucose + 10% dialyzed FBS, 0.000781 µM
[24] = RPMI 5 mM glucose + 10% dialyzed FBS, 0.00234 µM
[25] = RPMI 5 mM glucose + 10% dialyzed FBS, 0.00702 µM
[26] = RPMI 5 mM glucose + 10% dialyzed FBS, 0.0211 µM
[27] = RPMI 5 mM glucose + 10% dialyzed FBS, 0.0632 µM
[28] = RPMI 5 mM glucose + 10% dialyzed FBS, 0.19 µM
[29] = RPMI 5 mM glucose + 10% dialyzed FBS, 0.569 µM
[30] = RPMI 5 mM glucose + 10% dialyzed FBS, 1.71 µM
[31] = RPMI 5 mM glucose + 10% dialyzed FBS, 5.12 µM
[32] = RPMI 5 mM glucose + 10% dialyzed FBS, 15.4 µM
[33] = RPMI 5 mM glucose + 10% dialyzed FBS, 46.1 µM

| SMILES | cell viability [1] | cell viability [2] | cell viability [3] | cell viability [4] | cell viability [5] | cell viability [6] | cell viability [7] | cell viability [8] | cell viability [9] | cell viability [10] | cell viability [11] | cell viability [12] | cell viability [13] | cell viability [14] | cell viability [15] | cell viability [16] | cell viability [17] | cell viability [18] | cell viability [19] | cell viability [20] | cell viability [21] | cell viability [22] | cell viability [23] | cell viability [24] | cell viability [25] | cell viability [26] | cell viability [27] | cell viability [28] | cell viability [29] | cell viability [30] | cell viability [31] | cell viability [32] | cell viability [33] |
| --- | --- | --- | --- | --- | --- | --- | --- | --- | --- | --- | --- | --- | --- | --- | --- | --- | --- | --- | --- | --- | --- | --- | --- | --- | --- | --- | --- | --- | --- | --- | --- | --- | --- |
| OC1=CC2=C(C(=C1)O)C(=O)\C(=C(/O2)C3=CC(=C(O)C=C3)O)O | 98.8% | 99.2% | 108% | 113% | 112% | 111% | 107% | 110% | 116% | 102% | 79.3% | 93.8% | 107% | 103% | 103% | 109% | 105% | 110% | 101% | 107% | 101% | 85.9% | 107% | 108% | 113% | 103% | 117% | 100% | 117% | 108% | 118% | 109% | 73.2% |
| CC(C)[C@H](N)C(=O)OCCOC[N]1C=NC2=C1\N=C(N)/NC2=O | 124% | 124% | 121% | 125% | 128% | 126% | 131% | 131% | 123% | 123% | 119% | 123% | 135% | 122% | 121% | 128% | 150% | 146% | 152% | 140% | 132% | 146% | – | – | – | – | – | – | – | – | – | – | – |
| COc1ncc(-c2ccc3c(Nc4cc(Oc5cc(F)cc(F)c5)cc(C(=O)O)c4)c([S+](=O)([O-])NC4CC4)cnc3c2)c(OC)n1 | 94.1% | 95.9% | 92.3% | 91.9% | 91.5% | 94.2% | 93.3% | 91.7% | 87.9% | 78.6% | 82.3% | 84% | 87.8% | 88.1% | 93.1% | 97.9% | 84.2% | 82.2% | 83.1% | 79.6% | 75.3% | 76.5% | 91.1% | 43% | 87.7% | 89.4% | 92.7% | 91% | 91.3% | 88.4% | 84.6% | 82.8% | 81.8% |
| CC(C)C[C@H](NC(=O)[C@@H](O)[C@H](N)Cc1ccccc1)C(=O)O | – | – | – | – | – | – | – | – | – | – | – | – | – | – | – | – | – | – | – | – | – | – | 116% | 130% | 124% | 130% | 130% | 111% | 120% | 115% | 123% | 104% | 32% |
| Nc1ncnc2c1c(-c1cccc(OCc3ccccc3)c1)cn2C1CC(CN2CCCC2)C1 (configuration not stated) | 116% | 128% | 120% | 130% | 134% | 128% | 133% | 124% | 134% | 121% | 62.4% | – | – | – | – | – | – | – | – | – | – | – | – | – | – | – | – | – | – | – | – | – | – |
| N#C/N=C(\NCCCCCCOc1ccc(Cl)cc1)Nc1ccncc1 | 92.5% | 30.8% | 7.9% | 7.51% | 7.45% | 6.55% | 6.06% | 4.77% | 5.75% | 5.32% | 2.54% | 101% | 66.3% | 8.62% | 9.03% | 8.69% | 8.93% | 8.18% | 6.73% | 5.76% | 5.53% | 3.94% | 117% | 45.9% | 8.98% | 8.5% | 8.43% | 8.45% | 8.57% | 6.65% | 6.26% | 5.72% | 2.79% |
| C[C@H]1O[C@H](C[C@H](O)[C@@H]1O)O[C@H]2[C@@H](O)C[C@@H](O[C@@H]2C)O[C@H]3[C@@H](O)C[C@@H](O[C@@H]3C)O[C@H]4CC[C@@]5(C)[C@H](CC[C@@H]6[C@@H]5C[C@@H](O)[C@]7(C)[C@H](CC[C@]67O)C/8=C/C(=O)OC8)C4 | 116% | 128% | 123% | 111% | 33.5% | 13.3% | 12.7% | 12.8% | 14.3% | 20.5% | 17.2% | 115% | 123% | 124% | 110% | 86.5% | 58.1% | 12.3% | 10.4% | 9.93% | 12.4% | 11.7% | 113% | 111% | 117% | 110% | 76.4% | 32.5% | 13.3% | 10.7% | 8.02% | 8.92% | 6.92% |
| COc1cc(N2CCC(N(C)C)CC2)ccc1Nc1ncc(Cl)c(Nc2ccccc2P(C)(C)=O)n1 | 110% | 115% | 110% | 113% | 117% | 115% | 87.9% | 40.5% | 13.6% | 18.3% | 30.7% | 112% | 118% | 123% | 122% | 121% | 104% | 102% | 82.2% | 11.9% | 12.5% | 23.6% | 111% | 113% | 117% | 124% | 126% | 127% | 107% | 106% | 30.8% | 19.3% | 31.5% |
| O=C1NC(=O)/C(=C/c2ccc(-c3ccc(F)cc3O)o2)S1 | 113% | 117% | 116% | 121% | 112% | 116% | 108% | 107% | 97.7% | 97.9% | 89.7% | 116% | 117% | 112% | 112% | 112% | 111% | 102% | 90.4% | 90.1% | 80% | 65.7% | 115% | 120% | 121% | 117% | 117% | 121% | 117% | 88.2% | 89.5% | 84.3% | 72.4% |
